The values that follow come from patent US10674699B2, “Endophyte enhanced seedlings with increased pest tolerance” (priority 2006, dated 2020).

The conditions of series [1]: Breen et al. 1955; cited from earlier work.
The subject of the next series is mice. Conditions: ip in mice; Ueno et al. 1971; cited from earlier work.
The test system of series [2] is C. fumiferana (spruce budworm) larvae. The series can be described thus: Budworm growth on endophyte-infected nursery trees (mesh bags). Type of series: in vivo, Choristoneura fumiferana. Conditions: four year old trees, branches above and below 0.5 μg g^−1. The source says:
disease-free second instar spruce budworm larvae as follows: A set number of budworm were placed by hand on lateral branches with buds and then covered with a mesh screen on both endophyte-positive and negative trees. Temperature recorders were placed in the holding area and the progress monitored until the budworm was not greater than sixth instar. At termination, the insects were collected, frozen for subsequent determinations of head capsule width and frozen weight. Samples were collected for toxin analysis to ensure that there was no misclassification of the trees as to their endophyte status.
Nursery experiments: The tests were conducted at the J.D. Irving, Limited Sussex Tree Nursery in New Brunswick, Canada (45° 43′ N, 65° 31′ W; elevation 21.30 m). In two successive years, several hundred seedlings grown as container stock in mulitpot 67 seedling containers were inoculated with the rugulosin-producing endophyte 5WS22E1 (DAOM 229536; CBS 120377). […]
Temperature recorders (Hobo Dataloggers, Onset Computer Corporation, Pocasset, Mass.) were placed in the holding area and the progress monitored until the budworms were not older than sixth instars. […] Head capsule widths were determined using a stereo microscope at 40× with ocular and stage micrometers. […]

Series [3] concerns HepG2 cells (human hepatoma cells). To be noted: Watts et al. 2003; cited from earlier work.
Series [4] concerns mosquito larvae (Aedes albopictus) cell line. To be noted: Watts et al. 2003; cited from earlier work.
Series [5] deals with Gram positive and negative bacteria. To be noted: reported by many authors, e.g. Stark et al. 1978; cited from earlier work.
Series [6] relates to Zeiraphera canadensis larvae (spruce budmoth). The series is described as follows: Dietary rugulosin in artificial diet, wild collected spruce budmoth larvae. The format is in vivo. The method, then: Zeiraphera canadensis larvae (spruce budmoth) were collected from the wild near Sussex in mid June. They were immediately put in test vials and tested at rugulosin concentrations of 10, 50, 100 and 150 μM (75 per concentration). After seven days, surviving larvae were frozen and measured.

The next series deals with rats. To be noted: in rats; Ueno et al. 1971; cited from earlier work.
Series [7] concerns fruit flies (Drosophila melanogaster). Conditions: Dobias et al. 1980; cited from earlier work.

As for `Cc1cc(O)c2c(c1)C(=O)[C@]13C(=C2O)C(=O)[C@@H]2[C@H](O)[C@H]1[C@@H]1[C@@H](O)[C@H]3C(=O)C3=C(O)c4c(O)cc(C)cc4C(=O)[C@]312` [rugulosin], in [1], the antifungal activity result was “moderately antifungal”. For the same compound, the LD50 in the series with mice was 55 mg kg^−1 BW; with rats, 44 mg kg^−1 BW. Moreover, in series [2], the “Pearson correlation between rugulosin concentration and budworm weight” value is recorded as −0.288. The cytotoxicity entry in series [3] is “not cytotoxic”. For the same compound, the “toxicity to cultured cells” value in series [4] is “toxic”. Moreover, the antibiotic activity result in series [5] is listed as “antibiotic”. Also, the “larval weights, controls vs treatment groups by ANOVA (LSD, Tukey)” value in series [6] (10, 50, 100 and 150 μM rugulosin, seven days) is “not significantly different”. Further, the “effect of rugulosin on wild collected larvae relative to the other insect species” value in [6] (diet) is “same order of magnitude”. In series [6] (in vitro, diet), the “dietary concentration reducing body weight and/or affecting instar development” value is about 50 µM. Also, the “dietary toxicity of rugulosin” value in [7] was about 50 µM. Moreover, in series [7], the “toxicity to Drosophila melanogaster” value was “toxic”.
